“And” between values parts separate entries of the source, which are not always exact repeats. Identical values can stand only once. Inconclusive results are not listed.

These results are taken from PubChem BioAssay AID296 (DTP/NCI, 2004).

For this assay, the system named is MX-1 breast xenograft, nude mice, tumor weight T/C. The experiment in a line: NCI In Vivo Anticancer Drug Screen. Data for tumor model Human Mammary Carcinoma MX-1 Xenograft (intrarenal inoculation) in NU/NU Swiss (nude) mice. To be noted: endpoint: mean tumor weight change, higher = larger tumour. The procedure, abridged:
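Compound dosed to mice with transplantable tumor; vehicle group as control. Endpoint survival or tumour size, reported as T/C.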
In general terms: A xenograft is tissue or cells of one species grown in another, often human tumour cells in immunodeficient mice.

Where [1] appears, read: dose: 150.0 mg/kg/injection, schedule: Q04DX003 (sc), vehicle: saline with Tween-80.
Where [2] appears, read: dose: 300.0 mg/kg/injection, schedule: Q04DX003 (sc), vehicle: saline with Tween-80.
Setting [3] is: dose: 600.0 mg/kg/injection, schedule: Q04DX003 (sc), vehicle: saline with Tween-80.
Where [4] appears, read: dose: 1200.0 mg/kg/injection, schedule: Q04DX003 (sc), vehicle: saline with Tween-80.
Where [5] appears, read: dose: 50.0 mg/kg/injection, schedule: Q01DX010 (sc), vehicle: saline.
[6] abbreviates: dose: 300.0 mg/kg/injection, schedule: Q04DX003 (sc), vehicle: Klucel (hydroxypropylcellulose) (HPC).
Where [7] appears, read: dose: 600.0 mg/kg/injection, schedule: Q04DX003 (sc), vehicle: Klucel (hydroxypropylcellulose) (HPC).
[8] abbreviates: dose: 1200.0 mg/kg/injection, schedule: Q04DX003 (sc), vehicle: Klucel (hydroxypropylcellulose) (HPC).

As for `O=c1c(O)c(-c2cc(O)c(O)c(O)c2)oc2cc(O)cc(O)c12`, the T/C runs as follows: (dose: 3.0 mg/kg/injection, schedule: Q04DX003 (sc), vehicle: saline with Tween-80) 117 % of control; (dose: 6.0 mg/kg/injection, schedule: Q04DX003 (sc), vehicle: saline with Tween-80) 97 % of control; (dose: 12.0 mg/kg/injection, schedule: Q04DX003 (sc), vehicle: saline with Tween-80) 108 % of control; (dose: 24.0 mg/kg/injection, schedule: Q04DX003 (sc), vehicle: saline with Tween-80) 81 % of control.

Take `CCN1/C(=C/C=C/C=C/c2sc3ccccc3[n+]2CC)Sc2ccccc21`: the T/C is 56 % of control (dose: 1.5 mg/kg/injection, schedule: Q04DX003 (sc), vehicle: suspension in saline); 35 % of control (dose: 3.0 mg/kg/injection, schedule: Q04DX003 (sc), vehicle: suspension in saline); 71 % of control (dose: 6.0 mg/kg/injection, schedule: Q04DX003 (sc), vehicle: suspension in saline).

Regarding `C1OC1CN1CCN(CC2CO2)CC1` (configuration not stated), the T/C (dose: 8.0 mg/kg/injection, schedule: Q01DX010 (sc), vehicle: suspension in saline) is 289 % of control; the T/C (dose: 16.0 mg/kg/injection, schedule: Q01DX010 (sc), vehicle: saline) was 8 % of control and 33 % of control; the T/C (dose: 16.0 mg/kg/injection, schedule: Q01DX010 (sc), vehicle: suspension in saline) is 98 % of control.

As to `Nc1nc(N)c2cc(S(=O)(=O)c3ccccc3)ccc2n1`, the T/C runs as follows: under setting [1], 160 % of control; under setting [2], 171 % of control; under setting [3], 185 % of control; under setting [4], 152 % of control.

As to `CO[C@H](/C(C)=C/C=C/C(C)=C/c1coc(C)n1)[C@H](C)[C@H]1C[C@@H](O)[C@@]2(C)O[C@H]2/C=C/[C@@H](C)[C@@H]2C[C@@H](CC(=O)O2)C[C@H]2O[C@@H]2C(=O)O1`, the T/C is 34 % of control (dose: 0.25 mg/kg/injection, schedule: Q04DX003 (ip), vehicle: Klucel (hydroxypropylcellulose) (HPC)); 2 % of control (dose: 0.5 mg/kg/injection, schedule: Q04DX003 (ip), vehicle: Klucel (hydroxypropylcellulose) (HPC)); 3 % of control (dose: 1.0 mg/kg/injection, schedule: Q04DX003 (ip), vehicle: Klucel (hydroxypropylcellulose) (HPC)); -26 % of control (dose: 2.0 mg/kg/injection, schedule: Q04DX003 (ip), vehicle: Klucel (hydroxypropylcellulose) (HPC)).

As for `CCC[CH2][Sn]1([CH2]CCC)[O]C2C(CO)OC(n3ccc(N)nc3=O)C2[O]1` (configuration not stated), the T/C reads like this: (dose: 12.0 mg/kg/injection, schedule: Q04DX003 (sc), vehicle: Klucel (hydroxypropylcellulose) (HPC)) 55 % of control; (dose: 24.0 mg/kg/injection, schedule: Q04DX003 (sc), vehicle: Klucel (hydroxypropylcellulose) (HPC)) 59 % of control.

With `CCC1CC2CN(CCc3c([nH]c4ccccc34)C(C(=O)OC)(c3cc4c(cc3OC)N(C)C3C(O)(C(=O)OC)C(OC(C)=O)C5(CC)C=CCN6CCC43C65)C2)C1` (configuration not stated), the T/C (dose: 4.0 mg/kg/injection, schedule: Q04DX003 (sc), vehicle: saline) was 36 % of control; the T/C (dose: 8.0 mg/kg/injection, schedule: Q04DX003 (sc), vehicle: saline) was 4 % of control; the T/C (dose: 8.0 mg/kg/injection, schedule: Q04DX003 (sc), vehicle: water) was 25 % of control; the T/C (dose: 16.0 mg/kg/injection, schedule: Q04DX003 (sc), vehicle: saline) is -86 % of control.

In the case of `O=C(Nc1ccccc1C(=O)O)c1cc([N+](=O)[O-])cc([N+](=O)[O-])c1`, the T/C runs as follows: (dose: 100.0 mg/kg/injection, schedule: Q04DX003 (sc), vehicle: saline with Tween-80) 101 % of control; (dose: 200.0 mg/kg/injection, schedule: Q04DX003 (sc), vehicle: saline with Tween-80) 120 % of control.

Take `NC(=S)N/N=C\c1ncccc1OCc1cccc(N)c1`: the T/C runs as follows: under setting [3], 75 % of control; under setting [4], 152 % of control.

Take `COc1ccc(C(=O)/C(Br)=C/C(=O)O)cc1`: the T/C reads like this: (dose: 12.5 mg/kg/injection, schedule: Q01DX010 (sc), vehicle: saline) 110 % of control; (dose: 25.0 mg/kg/injection, schedule: Q01DX010 (sc), vehicle: saline) 63 % of control; under setting [5], 98 % of control.

For the compound `N#Cc1ccc(NN=O)nc1`, the T/C is, setting by setting: (dose: 12.5 mg/kg/injection, schedule: Q04DX003 (ip), vehicle: water) 110 % of control; (dose: 25.0 mg/kg/injection, schedule: Q04DX003 (ip), vehicle: water) 18 % of control; (dose: 50.0 mg/kg/injection, schedule: Q04DX003 (ip), vehicle: water) 18 % of control; (dose: 100.0 mg/kg/injection, schedule: Q04DX003 (ip), vehicle: water) 20 % of control.

In the case of `O=C1CN(Cc2ccc3c(c2)OCO3)NO1`, the T/C is 64 % of control under setting [1], 42 % of control under setting [2] and 39 % of control under setting [3].

Turning to `CSC(SC)=C1C(=O)NC(=O)NC1=O`, the T/C was 69 % of control (dose: 75.0 mg/kg/injection, schedule: Q04DX003 (sc), vehicle: suspension in saline); 75 % of control (dose: 150.0 mg/kg/injection, schedule: Q04DX003 (sc), vehicle: suspension in saline); 108 % of control (dose: 300.0 mg/kg/injection, schedule: Q04DX003 (sc), vehicle: suspension in saline); 42 % of control (dose: 600.0 mg/kg/injection, schedule: Q04DX003 (sc), vehicle: suspension in saline).

On to `COc1ccc2nc3cc(Cl)ccc3c(NCCNCCNCCNc3c4ccc(Cl)cc4nc4ccc(OC)cc34)c2c1`, for which the T/C is 74 % of control (dose: 25.0 mg/kg/injection, schedule: Q01DX010 (sc), vehicle: saline with Tween-80); 78 % of control (dose: 50.0 mg/kg/injection, schedule: Q01DX010 (sc), vehicle: saline with Tween-80); 115 % of control (dose: 100.0 mg/kg/injection, schedule: Q01DX010 (sc), vehicle: saline with Tween-80); 80 % of control (dose: 200.0 mg/kg/injection, schedule: Q01DX010 (sc), vehicle: saline with Tween-80).

With `COC1C(O)C(C)OC(OC2C(Oc3cccc4c(O)c5c(=O)oc6ccc(C)c7c(=O)oc(c34)c5c67)OC(C)C(O)C2O)C1O` (configuration not stated), the T/C under setting [6] is 90 % of control; the T/C under setting [7] was 94 % of control; the T/C under setting [8] is 70 % of control; the T/C (dose: 2400.0 mg/kg/injection, schedule: Q04DX003 (sc), vehicle: Klucel (hydroxypropylcellulose) (HPC)) was 49 % of control.

For the compound `C#C[C@]1(O)CC[C@H]2[C@@H]3CCc4cc(O)ccc4[C@H]3CC[C@@]21C`, the T/C reads like this: (dose: 150.0 mg/kg/injection, schedule: Q04DX003 (sc), vehicle: Klucel (hydroxypropylcellulose) (HPC)) 150 % of control; under setting [6], 94 % of control; under setting [7], 80 % of control; under setting [8], 122 % of control.

In the case of `Nc1ncnc2c1nnn2C1OC(CO)C(O)C1O` (configuration not stated), the T/C (dose: 18.75 mg/kg/injection, schedule: Q04DX003 (sc), vehicle: Klucel (hydroxypropylcellulose) (HPC)) is 76 % of control and 80 % of control.

As to `OCC1(CO)COC2(CCCCC2)N1`, the T/C by setting is: under setting [5], 107 % of control; (dose: 200.0 mg/kg/injection, schedule: Q01DX010 (sc), vehicle: saline) 75 % of control; (dose: 200.0 mg/kg/injection, schedule: Q01DX010 (sc), vehicle: suspension in saline) 83 % of control; (dose: 400.0 mg/kg/injection, schedule: Q01DX010 (sc), vehicle: suspension in saline) 56 % of control; (dose: 800.0 mg/kg/injection, schedule: Q01DX010 (sc), vehicle: suspension in saline) 63 % of control; (dose: 1600.0 mg/kg/injection, schedule: Q01DX010 (sc), vehicle: suspension in saline) 105 % of control.

Take `COC1=C(C)C(=O)C2=C(C1=O)C1C3CC4=C(C(=O)C(OC)=C(C)C4=O)C(CNC(=O)C(C)=O)N3C(C#N)C(C2)N1C` (configuration not stated): the T/C is, setting by setting: (dose: 1.0 mg/kg/injection, schedule: Q04DX003 (sc), vehicle: Klucel (hydroxypropylcellulose) (HPC)) 104 % of control; (dose: 4.0 mg/kg/injection, schedule: Q04DX003 (sc), vehicle: Klucel (hydroxypropylcellulose) (HPC)) 69 % of control.

Consider `O=C1C(=O)c2cccnc2-c2ncccc21`, for which the T/C (dose: 20.0 mg/kg/injection, schedule: Q04DX003 (sc), vehicle: Klucel (hydroxypropylcellulose) (HPC)) is 60 % of control.

For `NC(=O)CC(N)C(=O)O` (configuration not stated), the T/C by setting is: (dose: 1600.0 mg/kg/injection, schedule: Q04DX003 (sc), vehicle: saline) 88 % of control; (dose: 3200.0 mg/kg/injection, schedule: Q04DX003 (sc), vehicle: saline) 68 % of control; (dose: 6400.0 mg/kg/injection, schedule: Q04DX003 (sc), vehicle: saline) 90 % of control.
